# Experimental data published in patent publication US20260284018A1, “DUAL INHIBITORS OF DYRK1A AND 5-HT2 FOR TREATING A BRAIN DISORDER” (THE REGENTS OF THE UNIVERSITY OF CALIFORNIA, priority 2023, published 2026).
# Legend:
# DYRK1A = target: T1, DYRK1A (Homo sapiens, UniProt Q13627); experiment: DYRK1A inhibition (ADP-Glo assay); assay type: biochemical; conditions: FIG. 3
# T1 construct: purchased Promega
# Protocol: DYRK1A inhibition. IC50s for all compounds at DYRK1A were determined using an ADP-Glo™ assay kit (Promega) and DYRK1A enzyme system (Promega) following the manufacturer's protocol. In brief, 10 μL of DYRKtide substrate (1 mg/mL) and ATP (50 μM) in kinase reaction buffer (40 mM Tris HCl, 20 mM MgCl2, 0.1 mg/mL BSA, 50 μM DTT in DI water) was added to a solid white 96-well plate. Next, 5 μL of 5× compound solutions in kinase reaction buffer (5% DMSO) or 5% DMSO in kinase reaction buffer was added. Then 10 μL DYRK1A in kinase reaction buffer (2 ng/μL) was added and the plate was incubated at room temperature for 60 min before adding 25 μL ADP-Glo™ reagent. The plate was incubated for 40 min at room temperature. Subsequently, 50 μL of Kinase Detection Reagent was added, the plate was gently shaken for 1 min. and incubated away from light for 30-40 min. Finally, luminescence was measured using a BioTek Synergy HTX multi-mode reader (integration time=1 s). All data was normalized such that the luminescence produced by the lowest concentration treatment of each compound was set to 100% DYRK1A activity.
# C57BL/6J mice = experiment: Locomotion in open field chamber; assay type: in vivo; conditions: doses up to 30 mg/kg
# Protocol: Animals. Female C57BL/6J mice used in the head twitch response and locomotion assays, and Sprague Dawley dams used to generate embryonic cultures were obtained from Jackson Laboratory (Sacramento, CA). Mice were housed in a temperature- and humidity-controlled room maintained on a 12 h light/dark cycle in groups of four to five (same sex). Animals weighed between 17 and 30 g at the time of the experiments. All experimental procedures involving rodents were approved by the UC Davis Institutional Animal Care and Use Committee (IACUC) and adhered to principles described in the National Institutes of Health Guide for the Care and Use of Laboratory Animals. The University of California, Davis is accredited by the Association for Assessment and Accreditation of Laboratory Animal Care International (AAALAC).
# Head-Twitch Response and Locomotion. Mice (9-10 weeks old) were injected intraperitoneally with compounds dissolved in 10% Kolliphor® EL (Sigma) and 10% DMSO in 0.9% saline (injection volume 5 mL/kg) or vehicle, placed in an empty cage, and filmed for 10 min. Locomotion was quantified using ANYmaze Video Tracking System, version 7.07 (Stoelting Co.). […] The last 20 min of each video were scored by one trained observer blinded to the treatment conditions.
# PDPK1 = target: T2, PDPK1 (Homo sapiens, UniProt O15530); conditions: 10 μM; cited from earlier work
# T2 construct: purchased Eurofins DiscoverX (KINOMEscan scanEDGE service)
# MARK3 = target: T3, MARK3 (Homo sapiens, UniProt P27448); conditions: 10 μM; cited from earlier work
# T3 construct: purchased Eurofins DiscoverX (KINOMEscan scanEDGE service)
# ALK = target: T4, ALK (Homo sapiens, UniProt Q9UM73); conditions: 10 μM; cited from earlier work
# T4 construct: purchased Eurofins DiscoverX
# ULK2 = target: T5, ULK2 (Homo sapiens, UniProt Q8IYT8); conditions: 10 μM; cited from earlier work
# T5 construct: purchased Eurofins DiscoverX KINOMEscan scanEDGE
# MAPKAPK2 = target: T6, MAPKAPK2 (Homo sapiens, UniProt P49137); conditions: 10 μM; cited from earlier work
# T6 construct: purchased Eurofins DiscoverX (KINOMEscan scanEDGE service)
# IGF1R = target: T7, IGF1R (Homo sapiens, UniProt P08069); conditions: 10 μM; cited from earlier work
# T7 construct: purchased Eurofins DiscoverX
# DCAMKL1 = target: T8, DCAMKL1 (Homo sapiens, UniProt O15075); conditions: 10 μM; cited from earlier work
# T8 construct: purchased Eurofins DiscoverX
# MLK1 = target: T9, MLK1 (Homo sapiens, UniProt P80192); conditions: 10 μM; cited from earlier work
# T9 construct: purchased Eurofins DiscoverX (KINOMEscan scanEDGE service)
# KIT(V559D, T670I) = target: T10, KIT(V559D, T670I) (Homo sapiens, UniProt P10721, T670I/V559D); conditions: 10 μM; cited from earlier work
# T10 construct: purchased Eurofins DiscoverX
# PDGFRB = target: T11, PDGFRB (Homo sapiens, UniProt P09619); conditions: 10 μM; cited from earlier work
# T11 construct: purchased Eurofins DiscoverX (KINOMEscan scanEDGE service)
# ERBB2 = target: T12, ERBB2 (Homo sapiens, UniProt P04626); conditions: 10 μM; cited from earlier work
# T12 construct: purchased Eurofins DiscoverX
# RIOK2 = target: T13, RIOK2 (Homo sapiens, UniProt Q9BVS4); conditions: 10 μM; cited from earlier work
# T13 construct: purchased Eurofins DiscoverX KINOMEscan scanEDGE
# [1] = target: T14, JAK2(JH1domain-catalytic) (Homo sapiens, UniProt O60674); conditions: 10 μM; cited from earlier work
# T14 construct: JAK2(JH1domain-catalytic); purchased Eurofins DiscoverX
# [2] = target: T15, TYK2(JH1domain-catalytic) (Homo sapiens, UniProt P29597); conditions: 10 μM; cited from earlier work
# T15 construct: TYK2(JH1domain-catalytic); purchased Eurofins DiscoverX KINOMEscan scanEDGE
# MET = target: T16, MET (Homo sapiens, UniProt P08581); conditions: 10 μM; cited from earlier work
# T16 construct: purchased Eurofins DiscoverX (KINOMEscan scanEDGE service)
# CDK2 = target: T17, CDK2 (Homo sapiens, UniProt P24941); conditions: 10 μM; cited from earlier work
# T17 construct: purchased Eurofins DiscoverX
# PAK1 = target: T18, PAK1 (Homo sapiens, UniProt Q13153); conditions: 10 μM; cited from earlier work
# T18 construct: purchased Eurofins DiscoverX (KINOMEscan scanEDGE service)
# CHEK1 = target: T19, CHEK1 (Homo sapiens, UniProt O14757); conditions: 10 μM; cited from earlier work
# T19 construct: purchased Eurofins DiscoverX
# [3] = target: T20, RSK2(Kin.Dom.1-N-terminal) (Homo sapiens, UniProt P51812); conditions: 10 μM; cited from earlier work
# T20 construct: RSK2(Kin.Dom.1-N-terminal); purchased Eurofins DiscoverX KINOMEscan scanEDGE
# SNARK = target: T21, SNARK (Homo sapiens, UniProt Q9H093); conditions: 10 μM; cited from earlier work
# T21 construct: purchased Eurofins DiscoverX KINOMEscan scanEDGE
# IKK-beta = target: T22, IKK-beta (Homo sapiens, UniProt O14920); conditions: 10 μM; cited from earlier work
# T22 construct: purchased Eurofins DiscoverX
# TRKA = target: T23, TRKA (Homo sapiens, UniProt P04629); conditions: 10 μM; cited from earlier work
# T23 construct: purchased Eurofins DiscoverX KINOMEscan scanEDGE
# T5 sequence (Q8IYT8 whole entry): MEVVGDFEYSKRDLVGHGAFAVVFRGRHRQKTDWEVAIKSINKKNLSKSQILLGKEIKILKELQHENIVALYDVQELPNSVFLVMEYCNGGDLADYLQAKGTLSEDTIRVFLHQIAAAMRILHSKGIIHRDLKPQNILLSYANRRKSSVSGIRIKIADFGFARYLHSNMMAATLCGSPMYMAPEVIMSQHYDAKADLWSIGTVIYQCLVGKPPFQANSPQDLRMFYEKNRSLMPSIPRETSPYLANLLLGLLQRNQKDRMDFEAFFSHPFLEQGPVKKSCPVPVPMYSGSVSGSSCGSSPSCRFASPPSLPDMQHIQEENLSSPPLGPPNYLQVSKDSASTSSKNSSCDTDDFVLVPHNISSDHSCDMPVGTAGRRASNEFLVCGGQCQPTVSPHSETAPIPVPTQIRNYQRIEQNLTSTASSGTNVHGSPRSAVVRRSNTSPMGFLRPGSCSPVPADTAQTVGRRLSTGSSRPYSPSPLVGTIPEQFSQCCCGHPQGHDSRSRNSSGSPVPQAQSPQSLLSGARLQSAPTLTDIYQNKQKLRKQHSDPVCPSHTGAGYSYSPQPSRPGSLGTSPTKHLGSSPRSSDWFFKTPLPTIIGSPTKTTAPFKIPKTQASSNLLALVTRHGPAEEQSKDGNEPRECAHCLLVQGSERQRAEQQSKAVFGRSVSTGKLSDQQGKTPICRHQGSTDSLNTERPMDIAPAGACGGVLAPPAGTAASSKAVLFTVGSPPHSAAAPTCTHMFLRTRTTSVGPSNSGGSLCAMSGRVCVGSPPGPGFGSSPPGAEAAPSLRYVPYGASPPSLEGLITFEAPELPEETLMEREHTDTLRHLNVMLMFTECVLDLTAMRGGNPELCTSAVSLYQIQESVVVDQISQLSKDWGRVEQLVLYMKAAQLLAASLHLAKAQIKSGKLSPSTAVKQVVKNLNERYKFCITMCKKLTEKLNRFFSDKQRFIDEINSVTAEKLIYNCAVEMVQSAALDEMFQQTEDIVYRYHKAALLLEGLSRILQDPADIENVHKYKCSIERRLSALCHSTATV
# T2 sequence (O15530 whole entry): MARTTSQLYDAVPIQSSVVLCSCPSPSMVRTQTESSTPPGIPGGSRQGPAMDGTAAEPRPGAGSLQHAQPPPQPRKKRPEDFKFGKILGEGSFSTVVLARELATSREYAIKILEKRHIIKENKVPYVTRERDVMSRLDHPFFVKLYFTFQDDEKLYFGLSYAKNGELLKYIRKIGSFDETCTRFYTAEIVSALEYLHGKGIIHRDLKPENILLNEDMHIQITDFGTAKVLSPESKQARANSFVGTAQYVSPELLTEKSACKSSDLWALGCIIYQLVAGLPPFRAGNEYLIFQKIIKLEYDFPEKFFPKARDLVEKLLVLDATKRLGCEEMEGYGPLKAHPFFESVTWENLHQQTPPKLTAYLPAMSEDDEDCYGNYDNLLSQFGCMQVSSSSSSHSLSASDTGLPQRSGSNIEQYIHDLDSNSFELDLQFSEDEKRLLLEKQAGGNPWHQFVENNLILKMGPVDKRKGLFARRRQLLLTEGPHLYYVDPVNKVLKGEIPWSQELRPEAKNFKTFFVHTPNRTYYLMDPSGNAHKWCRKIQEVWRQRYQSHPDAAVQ
# T15 sequence (P29597 897-1176 limits assumed): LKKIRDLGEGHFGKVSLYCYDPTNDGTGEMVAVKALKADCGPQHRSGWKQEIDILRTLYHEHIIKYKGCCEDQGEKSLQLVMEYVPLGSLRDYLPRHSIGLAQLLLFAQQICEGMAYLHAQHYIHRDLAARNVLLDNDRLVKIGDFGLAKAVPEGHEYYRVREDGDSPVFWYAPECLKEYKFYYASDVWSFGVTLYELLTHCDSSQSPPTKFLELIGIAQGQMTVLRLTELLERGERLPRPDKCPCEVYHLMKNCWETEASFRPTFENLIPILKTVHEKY
# T3 sequence (P27448 whole entry): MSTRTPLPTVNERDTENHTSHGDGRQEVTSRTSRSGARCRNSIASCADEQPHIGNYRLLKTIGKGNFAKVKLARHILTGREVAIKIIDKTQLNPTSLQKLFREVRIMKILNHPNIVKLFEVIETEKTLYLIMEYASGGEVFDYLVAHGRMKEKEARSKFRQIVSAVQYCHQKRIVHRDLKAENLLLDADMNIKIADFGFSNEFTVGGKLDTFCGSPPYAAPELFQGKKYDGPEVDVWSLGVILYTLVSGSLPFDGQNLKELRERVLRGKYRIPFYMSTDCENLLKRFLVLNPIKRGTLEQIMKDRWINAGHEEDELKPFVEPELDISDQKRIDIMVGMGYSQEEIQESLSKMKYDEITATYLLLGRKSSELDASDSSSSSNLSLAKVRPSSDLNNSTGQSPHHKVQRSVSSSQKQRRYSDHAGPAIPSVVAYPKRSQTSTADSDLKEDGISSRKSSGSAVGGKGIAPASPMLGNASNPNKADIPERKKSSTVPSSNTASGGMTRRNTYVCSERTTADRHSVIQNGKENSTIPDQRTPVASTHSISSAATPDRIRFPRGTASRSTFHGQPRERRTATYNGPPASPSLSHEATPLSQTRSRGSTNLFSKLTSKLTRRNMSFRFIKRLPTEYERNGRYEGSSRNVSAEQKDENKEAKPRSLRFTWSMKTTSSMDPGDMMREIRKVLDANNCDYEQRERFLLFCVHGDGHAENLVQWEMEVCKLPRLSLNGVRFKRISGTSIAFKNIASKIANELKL
# T12 sequence (P04626 23-1255): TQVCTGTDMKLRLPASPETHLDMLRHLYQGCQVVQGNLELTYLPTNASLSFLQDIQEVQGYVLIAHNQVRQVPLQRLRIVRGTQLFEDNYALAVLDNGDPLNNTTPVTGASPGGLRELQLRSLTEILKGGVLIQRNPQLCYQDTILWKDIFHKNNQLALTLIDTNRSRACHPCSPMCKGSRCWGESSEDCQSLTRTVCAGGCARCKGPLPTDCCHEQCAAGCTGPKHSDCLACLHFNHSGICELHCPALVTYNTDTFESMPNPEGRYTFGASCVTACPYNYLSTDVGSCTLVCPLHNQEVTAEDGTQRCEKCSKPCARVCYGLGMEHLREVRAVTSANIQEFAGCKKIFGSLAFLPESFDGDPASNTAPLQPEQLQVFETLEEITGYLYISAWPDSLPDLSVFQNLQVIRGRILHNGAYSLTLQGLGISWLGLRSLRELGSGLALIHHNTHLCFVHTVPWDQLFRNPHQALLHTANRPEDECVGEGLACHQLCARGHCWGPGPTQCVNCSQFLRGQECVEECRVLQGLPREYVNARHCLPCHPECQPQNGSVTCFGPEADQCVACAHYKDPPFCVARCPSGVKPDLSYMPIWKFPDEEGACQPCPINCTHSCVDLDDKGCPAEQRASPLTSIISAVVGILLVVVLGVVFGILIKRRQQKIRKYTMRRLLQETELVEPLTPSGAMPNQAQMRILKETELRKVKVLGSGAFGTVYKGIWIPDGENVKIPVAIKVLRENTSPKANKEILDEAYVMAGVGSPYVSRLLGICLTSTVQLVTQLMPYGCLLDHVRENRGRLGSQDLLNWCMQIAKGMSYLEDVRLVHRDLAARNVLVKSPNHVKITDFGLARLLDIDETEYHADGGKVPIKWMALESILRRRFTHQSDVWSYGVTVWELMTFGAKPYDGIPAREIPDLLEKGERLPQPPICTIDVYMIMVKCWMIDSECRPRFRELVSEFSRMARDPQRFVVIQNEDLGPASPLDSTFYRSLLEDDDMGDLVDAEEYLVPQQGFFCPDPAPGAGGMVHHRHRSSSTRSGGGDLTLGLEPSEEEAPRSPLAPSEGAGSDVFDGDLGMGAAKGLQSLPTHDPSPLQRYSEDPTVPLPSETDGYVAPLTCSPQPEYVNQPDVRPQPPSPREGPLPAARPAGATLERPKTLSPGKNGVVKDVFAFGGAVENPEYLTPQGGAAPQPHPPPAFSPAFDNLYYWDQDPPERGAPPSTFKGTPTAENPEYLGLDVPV
# T21 sequence (Q9H093 whole entry): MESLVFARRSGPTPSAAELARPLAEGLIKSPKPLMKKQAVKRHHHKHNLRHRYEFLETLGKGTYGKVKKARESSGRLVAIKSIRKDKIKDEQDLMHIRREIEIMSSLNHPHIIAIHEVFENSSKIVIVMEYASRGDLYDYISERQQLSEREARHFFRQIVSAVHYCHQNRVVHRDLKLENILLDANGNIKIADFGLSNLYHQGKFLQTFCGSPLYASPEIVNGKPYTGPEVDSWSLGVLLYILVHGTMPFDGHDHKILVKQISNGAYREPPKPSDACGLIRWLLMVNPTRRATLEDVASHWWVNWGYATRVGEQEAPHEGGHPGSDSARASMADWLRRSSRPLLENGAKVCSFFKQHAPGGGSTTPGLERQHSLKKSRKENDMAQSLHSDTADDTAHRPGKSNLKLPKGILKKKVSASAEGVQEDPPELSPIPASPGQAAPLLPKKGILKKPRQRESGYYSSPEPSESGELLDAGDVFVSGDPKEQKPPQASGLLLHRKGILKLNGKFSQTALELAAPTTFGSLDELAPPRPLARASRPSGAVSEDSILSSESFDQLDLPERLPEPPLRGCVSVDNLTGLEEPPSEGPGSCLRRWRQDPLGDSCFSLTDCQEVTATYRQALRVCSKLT
# T20 sequence (P51812 68-327 limits assumed): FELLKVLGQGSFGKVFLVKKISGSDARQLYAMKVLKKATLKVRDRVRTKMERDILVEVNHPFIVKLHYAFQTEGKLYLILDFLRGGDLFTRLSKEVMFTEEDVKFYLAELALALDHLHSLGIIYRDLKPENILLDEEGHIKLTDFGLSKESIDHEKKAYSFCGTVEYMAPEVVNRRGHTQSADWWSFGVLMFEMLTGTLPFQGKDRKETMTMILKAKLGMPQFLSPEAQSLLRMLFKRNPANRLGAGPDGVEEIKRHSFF
# T14 sequence (O60674 849-1124 limits assumed): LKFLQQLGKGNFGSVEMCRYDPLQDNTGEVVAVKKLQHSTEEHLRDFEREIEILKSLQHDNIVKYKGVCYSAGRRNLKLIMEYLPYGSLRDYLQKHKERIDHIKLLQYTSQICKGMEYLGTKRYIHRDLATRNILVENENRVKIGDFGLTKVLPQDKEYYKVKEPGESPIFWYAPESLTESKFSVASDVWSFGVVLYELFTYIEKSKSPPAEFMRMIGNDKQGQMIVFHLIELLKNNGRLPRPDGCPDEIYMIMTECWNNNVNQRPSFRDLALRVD
compound,measurement,setting,value
"COc1ccc2c3ccnc(C)c3n(CCN(C)C)c2c1.O=C(O)/C=C/C(=O)O [HTW_A_8 fumarate, 2-(7-methoxy-1-methyl-9H-pyrido[3,4-b]indol-9-yl)-N,N-dimethylethan-1-amine Fumarate Salt (2:3)]",inhibition of DYRK1A activity,DYRK1A,able to inhibit DYRK1A activity
same,total distance traveled in open field chamber,C57BL/6J mice,do not significantly affect the total distance traveled
"COc1ccc2c(c1)N(CCN(C)C)/C(=C/C(C)=O)S2.O=C(O)/C=C/C(=O)O [HTW_B_14 fumarate, (Z)-1-(3-(2-(dimethylamino)ethyl)-5-methoxybenzo[d]thiazol-2(3H)-ylidene)propan-2-one Fumarate Salt (1:1)]",inhibition of DYRK1A activity,DYRK1A,able to inhibit DYRK1A activity
same,total distance traveled in open field chamber,C57BL/6J mice,do not significantly affect the total distance traveled
"COc1ccc2c(c1)[nH]c1c(C)nccc12 [Harmine, harmine]",Percent Control,PDPK1,100%
same,Percent Control,MARK3,91%
same,Percent Control,ALK,92%
same,Percent Control,ULK2,89%
same,Percent Control,MAPKAPK2,72%
same,Percent Control,IGF1R,100%
same,Percent Control,DCAMKL1,79%
same,Percent Control,MLK1,100%
same,Percent Control,"KIT(V559D, T670I)",92%
same,Percent Control,PDGFRB,84%
same,Percent Control,ERBB2,85%
same,Percent Control,RIOK2,74%
same,Percent Control,[1],92%
same,Percent Control,[2],96%
same,Percent Control,MET,100%
same,Percent Control,CDK2,98%
same,Percent Control,PAK1,73%
same,Percent Control,CHEK1,96%
same,Percent Control,[3],72%
same,Percent Control,SNARK,95%
same,Percent Control,IKK-beta,95%
same,Percent Control,TRKA,100%
